Experimental data: patent US10183943B2, “Heterocyclic compounds and their use in preventing or treating bacterial infections” (MUTABILIS, priority 2015, dated 2019)
Where two headings read alike, the source gives them in different places.

Columns and labels:
KPC-2 = biological target: T1, KPC-2 (Klebsiella pneumoniae, UniProt Q9F663); assay: β-lactamase inhibitory activity, determination of IC50 (nitrocefin hydrolysis); format: biochemical
T1 construct: made in house; host or cells: E. coli

[1] = tested on: E. cloacae UFR70 (TEM-1, CTX-M-15, CMY-2, OXA-1, Porin loss); assay: MIC of compounds alone, broth microdilution; format: cell-based; conditions: Enterobacter cloacae, read-out: MIC compounds of the invention alone
How it was run: (§1)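 Cpd alone in DMSO; CAMHB, log-phase inoculum 5×10^5 cfu/mL; 35° C, 16-20 h, ambient air; MIC = lowest conc. with no visible growth (CLSI M7-A7).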

[2] = tested on: K. pneumoniae BAA-1898 (TEM-1, SHV-11, SHV-12, KPC-2); assay: MIC of compounds alone, broth microdilution; format: cell-based; conditions: Klebsiella pneumoniae
How it was run: as §1

[3] = tested on: E. cloacae 260508 (TEM-1, CTX-M-15); assay: MIC of compounds alone, broth microdilution; format: cell-based; conditions: Enterobacter cloacae, read-out: MIC compounds of the invention alone
How it was run: as §1

[4] = tested on: E. cloacae UFR85 (TEM-1, CTX-M-15, AmpC); assay: MIC of compounds alone, broth microdilution; format: cell-based; conditions: Enterobacter cloacae, read-out: MIC compounds of the invention alone
How it was run: as §1

[5] = tested on: E. coli 190317 (TEM-1, SHV-12, CTX-M-15, OXA-1); assay: MIC of compounds alone, broth microdilution; format: cell-based; conditions: Escherichia coli, read-out: MIC compounds of the invention alone
How it was run: as §1

[6] = tested on: E. coli 131119 (TEM-1, OXA-48); assay: MIC of compounds alone, broth microdilution; format: cell-based; conditions: Escherichia coli, read-out: MIC compounds of the invention alone
How it was run: as §1

[7] = tested on: E. cloacae UFR51 (SHV-12, IMP-8); assay: MIC of compounds alone, broth microdilution; format: cell-based; conditions: Enterobacter cloacae, read-out: MIC compounds of the invention alone
How it was run: as §1

E. cloacae P99 (AmpC) = assay: MIC of compounds alone, broth microdilution; format: cell-based; conditions: Enterobacter cloacae, read-out: MIC compounds of the invention alone
How it was run: as §1

[8] = tested on: K. pneumoniae 6299 (TEM-1, SHV-11, OXA-163); assay: MIC of compounds alone, broth microdilution; format: cell-based; conditions: Klebsiella pneumoniae, read-out: MIC compounds of the invention alone
How it was run: as §1

[9] = tested on: K. pneumoniae UFR77 (CMY-2); assay: MIC of compounds alone, broth microdilution; format: cell-based; conditions: Klebsiella pneumoniae, read-out: MIC compounds of the invention alone
How it was run: as §1

[10] = tested on: E. coli UFR18 (CTX-M-15, OXA-204); assay: MIC of compounds alone, broth microdilution; format: cell-based; conditions: Escherichia coli, read-out: MIC compounds of the invention alone
How it was run: as §1

[11] = tested on: K. pneumoniae 200047 (TEM-1, SHV-32, CTX-M-15, OXA-1); assay: MIC of compounds alone, broth microdilution; format: cell-based; conditions: Klebsiella pneumoniae, read-out: MIC compounds of the invention alone
How it was run: as §1

[12] = tested on: K. pneumoniae UFR24 (TEM-1, SHV-2, SHV-11, OXA-1, OXA-48, OXA-47); assay: MIC of compounds alone, broth microdilution; format: cell-based; conditions: Klebsiella pneumoniae, read-out: MIC compounds of the invention alone
How it was run: as §1

[13] = tested on: K. oxytoca UFR21 (TEM-1, CTX-M-15, OXA-48); assay: MIC of compounds alone, broth microdilution; format: cell-based; conditions: Klebsiella oxytoca, read-out: MIC compounds of the invention alone
How it was run: as §1

[14] = tested on: E. coli UFR32 (TEM-1, VEB-1, OXA-10); assay: MIC of compounds alone, broth microdilution; format: cell-based; conditions: Escherichia coli, read-out: MIC compounds of the invention alone
How it was run: as §1

[15] = tested on: E. coli UFR61O (TEM-1, KPC-2); assay: MIC of compounds alone, broth microdilution; format: cell-based; conditions: Escherichia coli, read-out: MIC compounds of the invention alone
How it was run: as §1

[16] = tested on: E. coli UFR74 (SHV-1, DHA-1); assay: MIC of compounds alone, broth microdilution; format: cell-based; conditions: Escherichia coli, read-out: MIC compounds of the invention alone
How it was run: as §1

E. coli RGN238 (OXA-1) = assay: MIC of compounds alone, broth microdilution; format: cell-based; conditions: Escherichia coli, read-out: MIC compounds of the invention alone
How it was run: as §1

[17] = tested on: E. coli UFR41 (TEM-1, CTX-M-15, CMY-2, OXA-1, NDM-4); assay: MIC of compounds alone, broth microdilution; format: cell-based; conditions: Escherichia coli, read-out: MIC compounds of the invention alone
How it was run: as §1

[18] = tested on: K. pneumoniae 160143 (TEM-1, SHV-1, CTX-M-15, KPC-2, OXA-1); assay: MIC of compounds alone, broth microdilution; format: cell-based; conditions: Klebsiella pneumoniae, read-out: MIC compounds of the invention alone
How it was run: as §1

[19] = tested on: K. pneumoniae UFR39 (CTX-M-15, NDM-1); assay: MIC of compounds alone, broth microdilution; format: cell-based; conditions: Klebsiella pneumoniae, read-out: MIC compounds of the invention alone
How it was run: as §1

[20] = tested on: P. aeruginosa CIP107051 (TEM-24); assay: MIC of compounds alone, broth microdilution; format: cell-based; conditions: Pseudomonas aeruginosa
How it was run: as §1

[21] = tested on: K. pneumoniae UFR68 (TEM-1, SHV-11, CTX-M-15, KPC-3); assay: MIC of compounds alone, broth microdilution; format: cell-based; conditions: Klebsiella pneumoniae, read-out: MIC compounds of the invention alone
How it was run: as §1

OXA-1 = biological target: T2, OXA-1 (Escherichia coli, UniProt P13661); assay: β-lactamase inhibitory activity, determination of IC50 (nitrocefin hydrolysis); format: biochemical
T2 construct: made in house; host or cells: E. coli
T2 sequence (P13661 26-276): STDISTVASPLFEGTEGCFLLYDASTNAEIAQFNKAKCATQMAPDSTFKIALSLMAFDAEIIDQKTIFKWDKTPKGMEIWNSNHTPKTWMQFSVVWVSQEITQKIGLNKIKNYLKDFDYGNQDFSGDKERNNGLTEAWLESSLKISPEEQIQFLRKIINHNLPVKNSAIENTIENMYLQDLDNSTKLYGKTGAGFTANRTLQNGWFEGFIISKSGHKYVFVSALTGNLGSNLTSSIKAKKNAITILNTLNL

SHV-1 = biological target: T3, SHV-1 (Klebsiella pneumoniae, UniProt P0AD64); assay: as above; format: biochemical
T3 construct: made in house; host or cells: E. coli
T3 sequence (P0AD64 22-286): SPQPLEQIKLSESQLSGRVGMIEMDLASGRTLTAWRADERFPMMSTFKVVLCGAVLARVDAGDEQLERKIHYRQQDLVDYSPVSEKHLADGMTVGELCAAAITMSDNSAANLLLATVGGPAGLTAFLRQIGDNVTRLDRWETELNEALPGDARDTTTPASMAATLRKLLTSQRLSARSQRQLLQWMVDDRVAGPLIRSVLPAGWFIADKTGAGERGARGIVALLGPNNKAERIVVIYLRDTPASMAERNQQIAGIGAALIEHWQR

AmpC (P99) = AmpC (P99) (Enterobacter cloacae, UniProt P05364); assay: as above
AmpC (P99), sequence (P05364 21-381): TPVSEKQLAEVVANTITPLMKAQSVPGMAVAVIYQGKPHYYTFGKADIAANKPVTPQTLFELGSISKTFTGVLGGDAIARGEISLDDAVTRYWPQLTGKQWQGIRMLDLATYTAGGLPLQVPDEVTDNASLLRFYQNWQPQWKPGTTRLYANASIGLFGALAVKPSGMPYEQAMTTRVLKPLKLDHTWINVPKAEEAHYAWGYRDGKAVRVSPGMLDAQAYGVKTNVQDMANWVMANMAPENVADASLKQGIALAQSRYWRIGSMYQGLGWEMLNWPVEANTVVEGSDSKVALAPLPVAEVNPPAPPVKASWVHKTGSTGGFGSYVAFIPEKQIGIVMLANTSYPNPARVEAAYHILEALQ

OXA-11 = biological target: T4, OXA-11 (Pseudomonas aeruginosa, UniProt Q06778); assay: as above; format: biochemical
T4 construct: made in house; host or cells: E. coli
T4 sequence (Q06778 21-266): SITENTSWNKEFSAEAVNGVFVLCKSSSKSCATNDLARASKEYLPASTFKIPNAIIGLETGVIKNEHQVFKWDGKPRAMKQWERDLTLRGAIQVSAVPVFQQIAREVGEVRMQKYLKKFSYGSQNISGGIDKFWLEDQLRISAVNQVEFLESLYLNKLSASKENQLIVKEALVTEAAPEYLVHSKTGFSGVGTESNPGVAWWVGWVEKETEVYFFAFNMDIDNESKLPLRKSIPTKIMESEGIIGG

TEM-1 = biological target: T5, TEM-1 (Escherichia coli, UniProt P62593); assay: as above; format: biochemical
T5 construct: made in house; host or cells: E. coli
T5 sequence (P62593 24-286 limits assumed): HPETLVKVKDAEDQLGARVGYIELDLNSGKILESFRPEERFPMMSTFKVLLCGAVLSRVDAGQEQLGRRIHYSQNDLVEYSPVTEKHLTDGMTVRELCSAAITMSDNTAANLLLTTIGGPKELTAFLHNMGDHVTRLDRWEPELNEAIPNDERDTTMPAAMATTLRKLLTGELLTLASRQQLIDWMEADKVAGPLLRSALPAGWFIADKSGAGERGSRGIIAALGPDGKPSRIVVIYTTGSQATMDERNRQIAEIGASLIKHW

CTX-M-15 = biological target: T6, CTX-M-15 (Escherichia coli, UniProt Q9EXV5); assay: as above; format: biochemical
T6 construct: made in house; host or cells: E. coli
T6 sequence (Q9EXV5 entry or part of it): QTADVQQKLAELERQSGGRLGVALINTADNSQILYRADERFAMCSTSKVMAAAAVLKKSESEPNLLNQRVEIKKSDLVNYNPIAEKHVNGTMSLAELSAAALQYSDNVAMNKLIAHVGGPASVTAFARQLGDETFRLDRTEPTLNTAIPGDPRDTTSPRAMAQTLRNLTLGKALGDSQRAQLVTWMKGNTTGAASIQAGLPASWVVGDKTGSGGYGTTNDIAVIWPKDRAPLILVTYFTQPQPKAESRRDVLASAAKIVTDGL

AmpC P. aeruginosa = AmpC P. aeruginosa (Pseudomonas aeruginosa, UniProt P24735); assay: as above
AmpC P. aeruginosa, sequence (P24735 27-397): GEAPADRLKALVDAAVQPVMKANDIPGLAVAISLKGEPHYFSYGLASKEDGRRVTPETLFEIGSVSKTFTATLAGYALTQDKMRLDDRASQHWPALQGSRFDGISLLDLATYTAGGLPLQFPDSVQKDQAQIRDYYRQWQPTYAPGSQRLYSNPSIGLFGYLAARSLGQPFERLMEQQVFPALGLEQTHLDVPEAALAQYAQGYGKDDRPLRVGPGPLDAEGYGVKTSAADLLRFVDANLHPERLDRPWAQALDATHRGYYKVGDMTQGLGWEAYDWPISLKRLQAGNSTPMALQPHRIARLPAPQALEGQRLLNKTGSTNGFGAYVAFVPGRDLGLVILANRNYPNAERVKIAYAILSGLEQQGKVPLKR

OXA-15 = biological target: T7, OXA-15 (Pseudomonas aeruginosa, UniProt Q51574); assay: biochemical
T7 construct: made in house; host or cells: E. coli
T7 sequence (Q51574 22-275): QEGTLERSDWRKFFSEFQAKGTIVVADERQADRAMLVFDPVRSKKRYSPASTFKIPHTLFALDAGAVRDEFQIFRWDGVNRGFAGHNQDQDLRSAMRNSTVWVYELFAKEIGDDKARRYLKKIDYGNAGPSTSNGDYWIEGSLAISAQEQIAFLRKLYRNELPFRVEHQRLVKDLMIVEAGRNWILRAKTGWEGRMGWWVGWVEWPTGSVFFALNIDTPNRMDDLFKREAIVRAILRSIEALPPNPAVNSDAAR

OXA-48 = biological target: T8, OXA-48 (Klebsiella pneumoniae, UniProt Q6XEC0); assay: β-lactamase inhibitory activity, determination of IC50 (nitrocefin hydrolysis); format: biochemical
T8 construct: made in house; host or cells: E. coli
T8 sequence (Q6XEC0 23-265 limits assumed): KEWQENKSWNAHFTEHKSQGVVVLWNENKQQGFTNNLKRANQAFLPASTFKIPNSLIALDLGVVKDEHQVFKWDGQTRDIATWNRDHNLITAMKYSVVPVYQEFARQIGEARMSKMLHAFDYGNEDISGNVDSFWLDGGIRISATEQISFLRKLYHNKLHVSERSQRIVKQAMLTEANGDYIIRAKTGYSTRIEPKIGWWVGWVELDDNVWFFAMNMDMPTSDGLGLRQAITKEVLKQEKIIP

[22] = tested on: E. cloacae UFR51 (SHV-12, IMP-8); assay: MIC of ceftazidime (CAZ) in combination with compounds at 4 μg/mL, broth microdilution; format: cell-based; conditions: strain UFR51; MIC of CAZ with compound fixed at 4 μg/mL
Protocol: Method 2: MIC of Compounds and Synergy with Ceftazidime Against Bacterial Isolates (Table 2 and 3)
Compounds of the present invention were assessed against genotyped bacterial strains alone or in combination with the β-lactam ceftazidime (CAZ). In the assays, MICs of said compounds, or of ceftazidime at fixed concentrations of said compounds were determined by the broth microdilution method according to the Clinical Laboratory Standards Institute (CLSI-M7-A7). Briefly, compounds alone according to the invention were prepared in DMSO and spotted (2 μL each) on sterile polystyrene plates (Corning, 3788). Compounds and ceftazidime dilutions were prepared in DMSO and spotted (1 μL each) on sterile polystyrene plates (Corning, 3788). Log phase bacterial suspensions were adjusted to a final density of 5×10^5 cfu/mL in cation-adjusted Mueller-Hinton broth (Becton-Dickinson) and added to each well (98 μL). Microplates were incubated for 16-20 h at 35° C. in ambient air. The MIC of the compounds was defined as the lowest concentration of said compounds that prevented bacterial growth as read by visual inspection. The MIC of ceftazidime at each compound concentration was defined as the lowest concentration of ceftazidime that prevented bacterial growth as read by visual inspection.

T1 sequence (Q9F663 25-293 limits assumed): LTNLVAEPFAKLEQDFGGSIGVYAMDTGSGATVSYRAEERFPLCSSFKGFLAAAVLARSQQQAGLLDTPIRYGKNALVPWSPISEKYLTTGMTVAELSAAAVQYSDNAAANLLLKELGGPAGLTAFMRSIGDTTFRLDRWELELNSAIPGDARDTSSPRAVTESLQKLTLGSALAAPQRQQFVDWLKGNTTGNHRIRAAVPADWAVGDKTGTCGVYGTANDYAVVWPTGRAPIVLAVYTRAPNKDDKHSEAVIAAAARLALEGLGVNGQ

In the case of `O=C1N2CC=C(c3cnoc3)C(C2)N1OC(F)(F)C(=O)[O-].[Li+]` (stereo not drawn) [Example 6, Lithium difluoro-(4-isoxazol-4-yl-7-oxo-1,6-diaza-bicyclo[3.2.1]oct-3-en-6-yloxy)-acetate], the IC50 (KPC-2) is reported as 460 nM, the MIC [1] is reported as 16 µg/mL and the MIC ([2]; BAA1898, read-out: MIC compounds of the invention alone) is reported as greater than 32 µg/mL. The MIC [3] was 4 µg/mL, the MIC [4] was greater than 32 µg/mL and the MIC [5] was 2 µg/mL. It also gave an MIC [6] of 4 µg/mL, an MIC [7] of 2 µg/mL and an MIC (E. cloacae P99 (AmpC)) of 4 µg/mL. For the same compound, the MIC [8] was greater than 32 µg/mL, the MIC [9] was greater than 32 µg/mL and the MIC [10] was 2 µg/mL. It also gave an MIC [11] of 32 µg/mL, an MIC [12] greater than 32 µg/mL and an MIC [13] greater than 32 µg/mL. The MIC [14] was 2 µg/mL, the MIC [15] was 8 µg/mL and the MIC [16] was greater than 32 µg/mL. For the same compound, the MIC (E. coli RGN238 (OXA-1)) was 16 µg/mL, the MIC [17] was greater than 32 µg/mL and the MIC [18] was greater than 32 µg/mL. The MIC [19] was 4 µg/mL, the MIC ([20]; CIP107051, read-out: MIC compounds of the invention alone) was greater than 32 µg/mL and the MIC [21] was greater than 32 µg/mL. It also gave an IC50 (OXA-1) of 1700 nM, an IC50 (SHV-1) of 18 nM and an IC50 (AmpC (P99)) of 1800 nM. It also gave an IC50 (OXA-11) of 180 nM, an IC50 (TEM-1) of 7.3 nM and an IC50 (CTX-M-15) of 1.7 nM. The IC50 (AmpC P. aeruginosa) was 4200 nM, the IC50 (OXA-15) was 28 nM and the IC50 (OXA-48) was 3.7 nM.

With `O=C1N2CC(c3ccncc3)=CC(C2)N1OS(=O)(=O)[O-].[Na+]` (stereo not drawn) [Example 33, Sodium [3-(4-pyridyl)-7-oxo-1,6-diazabicyclo[3.2.1]oct-3-en-6-yl]sulfate] the IC50 (KPC-2; class (A), nitrocefin 200 μM, 30 min pre-incubation, read-out: IC50 β-lactamase KPC-2) was 9 nM, the “MIC combination of CAZ and compounds of the invention at 4 μg/mL” value [22] was greater than 128 µg/mL and the MIC [1] was 4 µg/mL. For the same compound, the MIC ([2]; BAA1898, strain BAA-1898 (K. pneumoniae), read-out: MIC compounds of the invention alone) was 8 µg/mL, the MIC [5] was 4 µg/mL and the MIC ([6]; strain 131119 (E. coli)) was 4 µg/mL. For the same compound, the MIC ([7]; strain UFR51 (E. cloacae)) was 16 µg/mL, the MIC (E. cloacae P99 (AmpC); strain P99 (E. cloacae)) was 8 µg/mL and the MIC ([8]; strain 6299 (K. pneumoniae)) was 16 µg/mL. The MIC ([9]; strain UFR77 (K. pneumoniae)) was 16 µg/mL, the MIC ([10]; strain UFR18 (E. coli)) was 4 µg/mL and the MIC [11] was 8 µg/mL. It also gave an MIC ([12]; strain UFR24 (K. pneumoniae)) of 32 µg/mL, an MIC [13] of 32 µg/mL and an MIC ([14]; strain UFR32 (E. coli)) of 8 µg/mL. The MIC ([15]; strain UFR61O (E. coli)) was 16 µg/mL, the MIC ([16]; strain UFR74 (E. coli)) was 8 µg/mL and the MIC (E. coli RGN238 (OXA-1); strain RGN238 (E. coli)) was 4 µg/mL. It also gave an MIC [18] of 8 µg/mL, an MIC ([19]; strain UFR39 (K. pneumoniae)) of 16 µg/mL and an MIC ([20]; strain CIP107051 (P. aeruginosa), read-out: MIC compounds of the invention alone) greater than 32 µg/mL. It also gave an IC50 (OXA-1; class (D), nitrocefin 200 μM, 30 min pre-incubation, read-out: IC50 β-lactamase OXA-1) of 690 nM, an IC50 (SHV-1) of 2.3 nM and an IC50 (AmpC (P99)) of 31 nM. It also gave an IC50 (OXA-11) of 210 nM, an IC50 (TEM-1) of 1 nM and an IC50 (CTX-M-15; class (A), nitrocefin 200 μM, 30 min pre-incubation, read-out: IC50 β-lactamase CTX-M-15) of 0.79 nM. It also gave an IC50 (AmpC P. aeruginosa) of 90 nM, an IC50 (OXA-15) of 110 nM and an IC50 (OXA-48; class (D), nitrocefin 200 μM, 30 min pre-incubation, read-out: IC50 β-lactamase OXA-48) of 12 nM.
